From PMC9440028, “Neurotensin analogs by fluoroglycosylation at N^ω-carbamoylated arginines for PET imaging of NTS1-positive tumors” (Scientific Reports, 2022)
Where two headings read alike, the source gives them in different places.

Assays:
[1] = target: T1, hNTS1R (Homo sapiens, UniProt P30989); assay: Radioligand competition binding with [^3H]UR-MK300 at intact HT-29 cells; settings: [^3H]UR-MK300 (Kd = […], c = 1 nM), 23 °C
T1 construct: at hNTS1R expressing intact human HT-29 colon carcinoma cells; endogenous in cells; host or cells: HT-29 human colon carcinoma cells (intact)
Experimental: Unspecific binding was subtracted from total binding to obtain specific binding. Data analysis was performed by plotting % specifically bound radioligand (100% = specifically bound radioligand in the absence of competitor) over log(concentration of competitor) followed by a four-parameter logistic fit (SigmaPlot 12.5, Systat Software). […] The Ki values from individual experiments were transformed to pKi values, followed by the calculation of mean pKi values ± SEM.

[2] = In vitro stability in human plasma/PBS (1:2 v/v) at 37 °C; assay type: in vitro ADME; settings: human blood plasma/PBS (1:2 v/v), read-out: % intact peptide in human plasma after the given incubation time; for remaining at 1 h, 100 µM: pH 7.4, 1 h; for remaining at 6 h, 100 µM: pH 7.4, 6 h; for remaining at 24 h, 100 µM: pH 7.4, 24 h; for remaining at 48 h, 100 µM: pH 7.4, 48 h; for remaining at 2 h, 100 µM: pH 7.4, 2 h; for remaining at 10 min, 100 µM: pH 7.4, 10 min
Experimental: The metabolic stabilities of 11–14, 16 and 18–21 (cf. Table 2) were investigated in human blood plasma/PBS (136.9 mM NaCl, 2.68 mM KCl, 5.62 mM Na2HPO4, 1.09 mM NaH2PO4 and 1.47 mM KH2PO4) pH 7.4 (1:2, v/v) according to a described procedure[13] with the following modifications: 5 mM stock solutions in EtOH/0.04% aq TFA (30:70 v/v) (11–13), MeCN/0.025% aq TFA (30:70 v/v) (14), MeCN/0.04% aq TFA (30:70 v/v) (16, 19 and 21) or EtOH/H2O (40:60 v/v) (18, 20) were used for the addition of the peptides to plasma/PBS (1:2 v/v). As the RP-HPLC purity of 1-Methyl-D-Trp (internal standard, IS) was < 95% (data not shown), the compound was purified by preparative HPLC to give a purity of > 99%. The concentration of the peptides in plasma/PBS (1:2 v/v) was 80 and 4 µM (recovery determination) or 100 µM (stability tests). The obtained recoveries and the recovery ratios (peptide/internal standard) are summarized in Supplementary Table S1. Data analysis was based on UV detection at 220 nm. Additionally, the stability of compound 21 was investigated in mouse plasma/PBS (1:2 v/v) using the same procedure as described above for human plasma. Mouse plasma was obtained by the collection of blood from anaesthetized mice via cardiac puncture using a syringe that was rinsed with sodium heparin (25,000 I.E., Ratiopharm, Ulm, Germany). The heparinized blood was transferred into a 2-mL reaction vessel, followed by centrifugation (1200 g, 4 °C, 10 min). The supernatants were pooled, centrifuged again (1200 g, 4 °C, 10 min), the plasma was aliquoted and stored at − 80 °C. The concentration of 21 in plasma/PBS (1:2 v/v) was 80 and 4 μM (recovery determination) or 100 μM (stability tests). The obtained recoveries and the recovery ratios (21/IS) are summarized in Supplementary Table S2. Data analysis was based on UV detection at 220 nm.

[3] = read-out: pKi ± SEM (converted)

T1 sequence (P30989 whole entry): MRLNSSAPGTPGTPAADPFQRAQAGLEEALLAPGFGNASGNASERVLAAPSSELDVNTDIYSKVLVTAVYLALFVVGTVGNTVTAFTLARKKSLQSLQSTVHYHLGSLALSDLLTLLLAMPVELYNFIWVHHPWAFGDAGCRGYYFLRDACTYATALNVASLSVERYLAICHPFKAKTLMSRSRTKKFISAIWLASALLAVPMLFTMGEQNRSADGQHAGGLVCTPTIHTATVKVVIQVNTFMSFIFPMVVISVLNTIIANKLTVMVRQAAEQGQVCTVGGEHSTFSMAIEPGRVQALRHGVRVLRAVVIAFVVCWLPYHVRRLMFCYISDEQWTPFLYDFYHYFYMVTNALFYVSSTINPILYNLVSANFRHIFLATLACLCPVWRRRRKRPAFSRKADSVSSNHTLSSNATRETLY

C#CCCCCNC(=O)NC(=N)NCCC[C@H](NC(=O)[C@H](CCCNC(=N)N)NC)C(=O)N1CCC[C@H]1C(=O)N[C@@H](Cc1ccc(O)cc1)C(=O)N[C@H](C(=O)N[C@@H](CC(C)C)C(=O)O)C(C)(C)C [Compound 9, N^α-(N^α-methylarginyl)-N^ω-(5-hexynylaminocarbonyl)Arg-Pro-Tyr-2-tert-butyl-Gly-Leu-OH tris(hydrotrifluoroacetate)]
Ki ([1]; mean, read-out: Ki (converted)): 7.7 nM | Ki [1, 3]: 7.41 nM

CN[C@@H](CCCNC(=N)NC(=O)NCCCCN)C(=O)N[C@@H](CCCNC(=N)N)C(=O)N1CCC[C@H]1C(=O)N[C@@H](Cc1ccc(O)cc1)C(=O)N[C@H](C(=O)N[C@@H](CC(C)C)C(=O)O)C(C)(C)C [Compound 16, N^α-methyl-N^ω-[(4-aminobutyl)aminocarbonyl]Arg-Arg-Pro-Tyr-2-tert-butyl-Gly-Leu-OH tetrakis(hydrotrifluoroacetate)]
remaining at 1 h, 100 µM [2]: > 99% | remaining at 6 h, 100 µM [2]: > 99% | remaining at 24 h, 100 µM [2]: > 99% | remaining at 48 h, 100 µM [2]: > 99% | Ki ([1]; mean, read-out: Ki (converted)): 2.8 nM

CN[C@@H](CCCNC(=N)N)C(=O)N[C@@H](CCCNC(=N)NC(=O)NCCCCc1cn([C@@H]2O[C@H](CF)[C@@H](O)[C@H](O)[C@H]2O)nn1)C(=O)N1CCC[C@H]1C(=O)N[C@@H](Cc1ccc(O)cc1)C(=O)N[C@H](C(=O)N[C@@H](CC(C)C)C(=O)O)C(C)(C)C [Compound 13, N^α-(N^α-methylarginyl)-{N^ω-[N-(4-{1-[6-deoxy-6-fluoro-β-D-glucopyranosyl]-1H-1,2,3-triazol-4-yl}butyl)aminocarbonyl]}Arg-Pro-Tyr-2-tert-butyl-Gly-Leu-OH tris(hydrotrifluoroacetate)]
remaining at 2 h, 100 µM [2]: > 99% | remaining at 6 h, 100 µM [2]: > 99% | remaining at 24 h, 100 µM [2]: > 99% | remaining at 48 h, 100 µM [2]: 96 ± 1% | Ki ([1]; mean): one-digit nanomolar range | Ki ([1]; mean, read-out: Ki (converted)): 6.2 nM

CC(C)C[C@H](NC(=O)[C@@H](NC(=O)[C@H](Cc1ccc(O)cc1)NC(=O)[C@@H]1CCCN1C(=O)[C@H](CCCNC(=N)N)NC(=O)[C@@H](N)CCCNC(=N)NC(=O)NCCCCN)C(C)(C)C)C(=O)O [Compound 14, N^ω-[(4-aminobutyl)aminocarbonyl]Arg-Arg-Pro-Tyr-2-tert-butyl-Gly-Leu-OH tetrakis(hydrotrifluoroacetate)]
remaining at 10 min, 100 µM [2]: 50 ± 2% | remaining at 1 h, 100 µM [2]: < 1% | remaining at 6 h, 100 µM [2]: < 1% | remaining at 24 h, 100 µM [2]: < 1% | Ki ([1]; mean, read-out: Ki (converted)): 2.2 nM | Ki [1, 3]: 2.04 nM

C#CCCCCNC(=O)NC(=N)NCCC[C@H](NC(=O)[C@@H](N)CCCNC(=N)N)C(=O)N1CCC[C@H]1C(=O)N[C@@H](Cc1ccc(O)cc1)C(=O)N[C@H](C(=O)N[C@@H](CC(C)C)C(=O)O)C(C)(C)C [Compound 8, H-Arg-(N^ω-5-hexynylaminocarbonyl)Arg-Pro-Tyr-2-tert-butyl-Gly-Leu-OH tris(hydrotrifluoroacetate)]
pKi ± SEM [1]: 8.03 ± 0.03 | Ki ([1]; mean, read-out: Ki (converted)): 9.4 nM

CC(C)C[C@H](NC(=O)[C@@H](NC(=O)[C@H](Cc1ccc(O)cc1)NC(=O)[C@@H]1CCCN1C(=O)[C@H](CCCNC(=N)N)NC(=O)[C@@H](N)CCCNC(=N)NC(=O)NCCCCc1cn([C@@H]2O[C@H](CF)[C@@H](O)[C@H](O)[C@H]2O)nn1)C(C)(C)C)C(=O)O [Compound 11, H-{N^ω-[N-(4-{1-[6-deoxy-6-fluoro-β-D-glucopyranosyl]-1H-1,2,3-triazol-4-yl}butyl)aminocarbonyl]}Arg-Arg-Pro-Tyr-2-tert-butyl-Gly-Leu-OH tris(hydrotrifluoroacetate)]
remaining at 10 min, 100 µM [2]: 72 ± 1% | remaining at 25 min, 100 µM ([2]; pH 7.4, 25 min): 24 ± 1% | remaining at 1 h, 100 µM [2]: 1.1 ± 0.1% | remaining at 2 h, 100 µM [2]: < 1% | Ki ([1]; mean, read-out: Ki (converted)): 4.6 nM

C#CCCCCNC(=O)NC(=N)NCCC[C@H](N)C(=O)N[C@@H](CCCNC(=N)N)C(=O)N1CCC[C@H]1C(=O)N[C@@H](Cc1ccc(O)cc1)C(=O)N[C@H](C(=O)N[C@@H](CC(C)C)C(=O)O)C(C)(C)C [Compound 7, H-(N^ω-5-hexynylaminocarbonyl)Arg-Arg-Pro-Tyr-2-tert-butyl-Gly-Leu-OH tris(hydrotrifluoroacetate)]
Ki ([1]; mean, read-out: Ki (converted)): 4.6 nM | Ki [1, 3]: 4.37 nM
